What was measured:
Format in all cases: in vivo, SD rats
melanin granules = experiment: Rat melasma model: Fontana-Masson staining of melanin granules; settings: for distribution of melanin granules: skin collected Day 58, tranexamic acid 5 mg/mL; for melanin granules in the skin tissue: skin collected Day 58, vs model group, tranexamic acid 5 mg/mL
Method: 3.3 Detection of indicators: The first day of modeling was denoted as Day 1, and the experimental period lasted for 58 days. […] Then the rats in each group were euthanized, their backs were depilated, and 0.5 g of full-thickness skin tissue from the depilated back was taken and placed into an ice bath, and normal saline was added to make a 10% tissue homogenate. The homogenate was centrifuged at 3000 r/min at room temperature for 10 min to obtain a supernatant of skin tissue homogenate. ELISA was carried out to detect the expression of endothelin-1 in the supernatant of skin tissue homogenate. The skin of the modeling area on the back of rats was taken and immersed in 10% neutral formaldehyde for fixation at room temperature for 4 days. Four days later (Day 62), paraffin embedding and sectioning were performed to obtain paraffin sections of skin. The HE staining was performed to observe the pathological changes of the skin tissues of rats in each group. Staining method: The dried paraffin sections were conventionally dewaxed with xylene, hydrated with descending gradient ethanol, and washed with distilled water; the nuclei were stained with hematoxylin for 2 minutes, differentiated with hydrochloric acid and alcohol for a few seconds, and washed with water to return to blue; the sections were stained with eosin stain for 1 minute, and the residual stain was washed with water; the sections were dehydrated and dried with gradient alcohol, transparentized with xylene, and blocked with neutral gum, then observed under microscope. The epidermal hyperplasia of the skin tissue sample sections, arrangement of basal cells, presence or absence of inflammatory cell infiltration in the dermis, and changes in the number of capillaries in all groups were observed according to the evaluation indexes. Fontana-Masson staining was performed to observe the skin pigmentation of the rats. […] An immunohistochemistrical assay was performed to detect the expression of tyrosinase in the skin in each group.

tyrosinase = experiment: Rat melasma model: immunohistochemical staining of tyrosinase in skin; settings: for tyrosinase positive rate in the skin tissues: immunohistochemistry, skin collected Day 58, vs model group, P<0.001; for tyrosinase expression in the skin tissues: vs model group, P<0.01
Source text: (§1) 3.1 Modeling: Before the experiment, on Day 0, SD rats (purchased from Beijing Vital River Experimental Animal Technology Co., Ltd., SPF grade, female, 7-8 weeks old, weighing 200±20 g) were randomly grouped and numbered. The hairs on the backs of animals in each group were shaved using an electric shaver, and the short hairs on the skin were removed with a depilatory cream to fully expose the back skin. The hair removal area was slightly larger than the actual modeling area (5 cm×5 cm). Each rat was depilated once every 2-3 days to ensure that the back skin was fully exposed. On the next day (Day 1), rats in each group were weighed, and the weights were recorded when the electronic scale reading was stable. A progesterone injection was injected intramuscularly at the base of the rat's thigh (alternately between the thighs on both sides), with a drug concentration of 20 mg/mL and an injection dose of 25 mg/kg, once a day. After the intramuscular injection, the rat's back skin was irradiated with ultraviolet light at a wavelength of 280-320 nm. The light source was about 30 cm away from the rat's back skin, and the irradiation time lasted for 60 minutes each time, for a total of 4 weeks.
The injection volume was 0.05 mL/cm^2, 5 days each time, and the administration lasted for 30 days continuously. The animals in the control group (only depilated, without modeling) and the model group were given the solvent.
3.3 Detection of indicators: The first day of modeling was denoted as Day 1, and the experimental period lasted for 58 days. After the end of the experiment (Day 58), 1 hour after the last administration, the skin of the modeling area of the rats in each group was photographed for scoring of apparent indexes (scoring criteria was provided in Table 1). Then the rats in each group were euthanized, their backs were depilated, and 0.5 g of full-thickness skin tissue from the depilated back was taken and placed into an ice bath, and normal saline was added to make a 10% tissue homogenate. The homogenate was centrifuged at 3000 r/min at room temperature for 10 min to obtain a supernatant of skin tissue homogenate. ELISA was carried out to detect the expression of endothelin-1 in the supernatant of skin tissue homogenate. The skin of the modeling area on the back of rats was taken and immersed in 10% neutral formaldehyde for fixation at room temperature for 4 days. Four days later (Day 62), paraffin embedding and sectioning were performed to obtain paraffin sections of skin. The HE staining was performed to observe the pathological changes of the skin tissues of rats in each group. […]

rat models of melasma [1] = experiment: Rat melasma model (UVB irradiation + progesterone): apparent indexes, lesion color and area; settings: Day 58, vs model group, P<0.05; local injection; tranexamic acid 5 mg/mL; compounds under test 5 mg/mL and 1.5 mg/mL
Source text: as §1
(§2) The injection volume was 0.05 mL/cm^2, 5 days each time, and the administration lasted for 30 days continuously. […]

rat models of melasma [2] = experiment: Rat melasma model: HE staining of skin tissues; settings: vs model group, tranexamic acid 5 mg/mL, compounds under test 5 mg/mL and 1.5 mg/mL
Source text: as §1, §2

endothelin-1 = experiment: Rat melasma model: ELISA of ET-1 in supernatant of skin tissue homogenate; settings: Day 58, vs model group, P<0.01, tranexamic acid 5 mg/mL, compounds under test 5 mg/mL and 1.5 mg/mL
Source text: as §1, §2

SMILES	distribution of melanin granules (melanin granules)	melanin granules in the skin tissue (melanin granules)	tyrosinase positive rate in the skin tissues (tyrosinase)	color of the lesion areas (rat models of melasma [1])	lesion area (rat models of melasma [1])	inflammatory cell infiltration (rat models of melasma [2])	thickness of the basal layer and stratum spinosum of the epidermal tissues (rat models of melasma [2])	ET-1 content in the skin tissue homogenate (endothelin-1)	tyrosinase expression in the skin tissues (tyrosinase; 1.5 mg/mL group)	tyrosinase expression in the skin tissues (tyrosinase; 5 mg/mL group)
Cl.O=S(=O)(O)c1ccc2c(n1)CC(CCCc1ccccc1)NC2 (centres unmarked) [compound under test 3, 7-(3-phenylpropyl)-5,6,7,8-tetrahydro-1,6-naphthyridine-2-sulfonic acid hydrochloride]	distributed discontinuously only in the basal layer	significantly reduced	significantly reduced							
Cl.O=C(O)c1ccc2c(n1)CCNC2 [compound under test 1, 5,6,7,8-tetrahydro-1,6-naphthyridine-2-carboxylic acid hydrochloride]	distributed discontinuously only in the basal layer	significantly reduced	significantly reduced							
NC[C@H]1CC[C@H](C(=O)O)CC1 [tranexamic acid, Tranexamic acid]		reduced		significantly lighter	significantly reduced	improved	significantly reduced	significantly reduced		
Cl.O=P(O)(O)c1ccc2c(n1)CCNC2 [compound under test 2, (5,6,7,8-tetrahydro-1,6-naphthyridin-2-yl)phosphonic acid hydrochloride]									significantly different from those in the model group	significantly different from those in the model group
